Patent US8227620B2, “Pharmaceutical compounds” (Neuroscienze Pharmaness S.C. A.R.L., priority 2004, dated 2012)

Key:
CB1 receptors [1] = target: T1, CB1 receptors (Rattus norvegicus, UniProt P20272); assay: Hypothermia test in vivo, compound alone (rectal temperature); parameters: from tissue; host or cells: whole animal (rat), central CB1 receptors of the hypothalamus; details: i.p., doses 0.1, 0.5, 1.0, 3.0, 6.0 mg/kg, versus physiological solution (38° C.)
Description: The test was carried out with the compound of the Example 3.1c. Aqueous samples were used wherein the compound of the Example 3.1c was dispersed in water with three drops of Tween 80. Following the above procedure, treatments were carried out with doses (mg compound/kg of body weight) respectively of 0.1; 0.5; 1.0; 3.0; 6.0.

CB2 receptors = target: T2, CB2 receptors (Rattus norvegicus, UniProt Q9QZN9); assay: Radioreceptor binding, [3H]-CP-55,940 displacement, rat spleen membranes; details: 1 nM [3H]-CP55,940
T2 construct: the brain in toto (cerebellum excluded) and the spleen were rapidely dissected; from tissue; host or cells: rat spleen membranes
T2 sequence (Q9QZN9 1-360): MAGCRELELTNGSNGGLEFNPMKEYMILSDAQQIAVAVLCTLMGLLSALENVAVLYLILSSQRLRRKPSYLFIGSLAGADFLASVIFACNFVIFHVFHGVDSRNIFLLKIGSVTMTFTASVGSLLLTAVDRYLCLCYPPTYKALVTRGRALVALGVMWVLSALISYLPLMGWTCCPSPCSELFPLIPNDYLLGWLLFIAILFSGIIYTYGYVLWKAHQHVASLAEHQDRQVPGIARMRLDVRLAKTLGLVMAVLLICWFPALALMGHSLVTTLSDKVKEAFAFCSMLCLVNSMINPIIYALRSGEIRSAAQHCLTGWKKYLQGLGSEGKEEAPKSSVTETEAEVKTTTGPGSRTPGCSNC
From the text: (§1) The receptorial binding technique allows indeed to establish if and with what affinity and specificity a determined compound binds itself to a particular receptor. To evaluate the affinity of a determined compound towards a particular receptor, a particular preparation of the tissue wherein the receptors are present is used and the tested compound is made to compete with another compound, treated so as to make it radioactive and of which the affinity for the receptor is known. […] The reading of the radioactivity present in the receptor-compound complex allows furthermore to precisely calculate the compound amount bound to the receptor. By this method it is therefore possible to rapidely identify the affinity of a new compound towards a specific receptor and thus to make predictions on its pharmacological activity. By repeating the same experimental scheme it is possible to evaluate the affinity of the compound towards other kinds of receptors and thus establish the specificity degree.
(§2) Food and water were available ad libitum.
(§3) The animals were sacrificed by cervical dislocation, the brain in toto (cerebellum excluded) and the spleen were rapidely dissected and maintained in ice.
(§4) The tissue was homogenized in 15 volumes (weight/volume) of TME buffer (50 mM Tris, 1 mM EDTA e 3 mM MgCl2, pH 7.4) by an Ultra-Turrax and centrifuged for 10 minutes at 1086×g in a centrifuge cooled at 4° C. The resulting supernatant was centrifuged at 45,000×g for 30 min at 4° C. by using a Beckman SW41 rotor and the final pellet was resuspended in 50 volumes of TME.
(§5) The obtained membranes (50-80 μg of proteins) were incubated in the presence of 1 nM di [^3H]-CP55,940 for 1 h at 30° C. in a final volume of 0.5 ml of TME buffer containing 5 mg/ml of bovine serum albumin (BSA). The non specific binding was measured in the presence of CP55,940 at the 1 μM concentration. […]
(§6) The radioactivity present in the filters was measured by a scintillator spectrophotometer (Tricarb 2100, Packard, Meridien, USA). […]

CB1 receptors [2] = target: T1, CB1 receptors; assay: Radioreceptor binding, [3H]-CP-55,940 displacement, rat brain membranes; parameters: from tissue; host or cells: whole animal (rat), central CB1 receptors of the hypothalamus; details: 1 nM [3H]-CP55,940
From the text: as §1, §2, §3, §4, §5, §6

T1 sequence (P20272 whole entry): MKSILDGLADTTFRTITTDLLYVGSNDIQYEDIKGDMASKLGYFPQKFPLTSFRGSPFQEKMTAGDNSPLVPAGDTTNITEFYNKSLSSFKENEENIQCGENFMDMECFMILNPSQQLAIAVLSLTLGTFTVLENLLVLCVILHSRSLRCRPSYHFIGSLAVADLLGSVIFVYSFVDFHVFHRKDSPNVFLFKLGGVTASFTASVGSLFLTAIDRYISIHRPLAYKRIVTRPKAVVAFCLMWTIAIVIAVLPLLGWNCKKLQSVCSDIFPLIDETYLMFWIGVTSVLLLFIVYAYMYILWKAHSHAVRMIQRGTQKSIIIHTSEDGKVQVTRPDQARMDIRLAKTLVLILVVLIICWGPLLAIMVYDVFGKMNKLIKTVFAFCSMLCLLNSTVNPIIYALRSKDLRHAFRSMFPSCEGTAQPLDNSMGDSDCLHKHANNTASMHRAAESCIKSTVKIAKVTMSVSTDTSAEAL

| Structure (SMILES) | melting point | effect of the compound as such on body temperature (CB1 receptors [1]) | Ki (CB2 receptors) | Ki (CB1 receptors [2]) |
| --- | --- | --- | --- | --- |
| Cc1c(C(=O)Nc2ccccc2)nn(-c2ccc(Cl)cc2Cl)c1-c1ccc(Cl)s1 | 175 to 176 °C |  |  |  |
| Cc1c(C(=O)NN2CCCCCC2)nn(-c2ccc(Cl)cc2Cl)c1-c1ccc(Cl)s1 [Example 3.1c, N-homopiperidinyl-5-(5-Chloro-thiophen-2-yl)-1-(2′,4′-dichloro-phenyl)-4-methyl-1H-pyrazol-3-carboxamide] |  | In none of the examined cases there was a reduction of the body temperature | 270 ± 5 nM | 21 ± 1 nM |
